Laboratory results from patent publication US12629370B2, “Treatment of prostate cancer” (Sumitomo Pharma Co., Ltd., priority 2016, dated 2026).
Where “and” joins values, the source holds several entries; their conditions need not be identical. Identical values can stand only once. Entries after “also recorded” stand apart in the source; their conditions may differ.

Key:
Format in all cases: in vivo, human
[1] = Example 6: plasma concentration of unchanged Compound 1 (LC-MS/MS)
Procedure: Subjects in Cohort 1 received a load dose of 320 mg and a maintenance dose of 80 mg; subjects in Cohort 2 received a load dose of 320 mg and a maintenance dose of 120 mg; subjects in Cohort 3 received a load dose of 320 mg and a maintenance dose of 160 mg; and subjects in Cohort 4 received a load dose of 360 mg and a maintenance dose of 120 mg.
In addition to the safety assessments, efficacy assessments were also performed according to the study schedule, and the Compound 1 formulation was administered until each subject met the discontinuation criteria.

FSH = assay: Example 9: FSH
Procedure: Eligible male patients were aged ≥18 years with a histologically confirmed diagnosis of localized, intermediate-risk prostate cancer, for whom 6-month neoadjuvant and adjuvant androgen deprivation therapy (ADT) to external beam radiation therapy (EBRT) was indicated. The criteria for establishing intermediate-risk prostate cancer included the presence of one of the following, without any high-risk feature: T2b-T2c disease, Gleason score 7, or prostate-specific antigen (PSA) 10-20 ng/mL. Additional inclusion criteria included: EBRT scheduled to begin ≥12 weeks after baseline visit; screening serum testosterone >150 ng/dL (5.2 nmol/L); screening PSA concentration >2 ng/ml; body mass index ≥18.0 at screening or baseline (i.e., the subject's BMI prior to treatment commencing); Eastern Cooperative Oncology Group performance status of 0 or 1 at screening. Based on investigator discretion and clinical assessment of the patient's overall medical and disease status, participation was allowed for older patients with high-risk disease (e.g., based on Gleason score or tumor status) who were deemed likely to benefit from 6 months of neoadjuvant/adjuvant ADT. Most patients had intermediate-risk disease. However, a few patients, based on Gleason score or tumor, node, and metastasis staging system, were technically of higher than intermediate risk.
Both treatment arms received treatment for 24 weeks. Patients remained on treatment for at least 12 weeks before the start of external beam radiation treatment (EBRT), which was initiated for most patients between Week 13, Day 1 and Week 15, Day 1. EBRT began no later than day 1, week 17.
Patients were evaluated every 4 weeks during the treatment period (including day 1, week 25), at end of treatment (defined as week 29), during follow-up (week 33), and at end of study (EOS).
Samples for testosterone, luteinizing hormone (LH), FSH, and PSA concentrations were taken at screening, on day 1 of the first week (additionally days 2 and 4 for testosterone and LH), and on day 1 of weeks 2, 3, 5, 9, 13, 17, 21, 25, 29, 33, and 37 thereafter. […] Suppression of FSH was less profound than that of LH, but consistent with the literature, and was greater than that observed with GnRH agonists.

serum testosterone = assay: Example 9: serum testosterone, castration and recovery, neoadjuvant/adjuvant ADT to EBRT, versus degarelix
Procedure: Eligible male patients were aged ≥18 years with a histologically confirmed diagnosis of localized, intermediate-risk prostate cancer, for whom 6-month neoadjuvant and adjuvant androgen deprivation therapy (ADT) to external beam radiation therapy (EBRT) was indicated. The criteria for establishing intermediate-risk prostate cancer included the presence of one of the following, without any high-risk feature: T2b-T2c disease, Gleason score 7, or prostate-specific antigen (PSA) 10-20 ng/mL. […] Based on investigator discretion and clinical assessment of the patient's overall medical and disease status, participation was allowed for older patients with high-risk disease (e.g., based on Gleason score or tumor status) who were deemed likely to benefit from 6 months of neoadjuvant/adjuvant ADT.
Both treatment arms received treatment for 24 weeks. […] EBRT began no later than day 1, week 17. […]
Samples for testosterone, luteinizing hormone (LH), FSH, and PSA concentrations were taken at screening, on day 1 of the first week (additionally days 2 and 4 for testosterone and LH), and on day 1 of weeks 2, 3, 5, 9, 13, 17, 21, 25, 29, 33, and 37 thereafter.

[2] = Example 7: single and multiple dose pharmacokinetics and food effect in healthy men; conditions: for half-life: read-out: mean plasma T1/2 (converted)
Procedure: Samples were analyzed using validated liquid chromatography with tandem mass spectrometry (LC/MS/MS) methods. The LLOQ was 0.0100 ng/ml for plasma and 0.500 ng/ml for urine.
Then, a formal assessment was performed using both analysis of variance (ANOVA) and power model approaches. […] In Part 2, steady state attainment was determined based on visual inspection of mean observed predose plasma concentration during multiple dosing (Ctrough) versus time profiles at each dose level. Noncompartmental analysis of Part 3 and 4 data were not planned given the limited number of postdose samples collected per subject on Days 1 and 28.

[3] = subjects with at least 24 weeks of treatment

**Q.** What does the source list for `CONC(=O)Nc1ccc(-c2sc3c(c2CN(C)C)c(=O)n(-c2ccc(OC)nn2)c(=O)n3Cc2c(F)cccc2F)cc1` [Compound 1, N-(4-(1-(2,6-difluorobenzyl)-5-((dimethylamino)methyl)-3-(6-methoxy-3-pyridazinyl)-2,4-dioxo-1,2,3,4-tetrahydrothieno[2,3-d]pyrimidin-6-yl)phenyl)-N′-methoxyurea]?
**A.** median Tmax ([1]; Part A Day 1, load dose 320 mg, across cohorts): 1.5 h; mean Cmax, Ctrough and mean plasma AUC24 versus dose ([1]; Part A Days 14 and 28, 80 to 160 mg QD): generally increased proportionately with dose; median Tmax ([1]; Part A Days 14 and 28, maintenance 80 to 160 mg QD): 0.5 to 2.0 h; Tmax ([1]; male, human, plasma, oral, Part A Day 1, load dose 320 mg, across cohorts, read-out: median Tmax): 1 h; half-life ([1]; male, human, plasma, oral, Part A Day 28, across cohorts, read-out: mean plasma T1/2): 66.5 to 78.1 h; FSH level before administration (FSH; Baseline): 11.826 IU/L; FSH level (FSH; Week 2, Day 1): 2.363 IU/L; mean FSH level (FSH; Week 25, Day 1): 1.475 IU/L; visit by which average serum testosterone decreased below medical castration threshold of 50 ng/dL (serum testosterone; 120 mg QD after 320 mg load): Day 4; visit by which average serum testosterone decreased below profound castration threshold of 20 ng/dl (serum testosterone; 120 mg QD after 320 mg load): Week 5 Day 1; Kaplan-Meier estimate (95% CI) of testosterone recovery, probability of event (serum testosterone; 4 weeks from last dose): 0.03 (0.00.0.08); Percent recovery (95% CI) to baseline testosterone or >280 ng/dL (serum testosterone; 4 weeks from last dose): 3.1 (0.4.10.7) %; Kaplan-Meier estimate (95% CI) of testosterone recovery, probability of event (serum testosterone; 8 weeks from last dose): 0.24 (0.13.0.34); Percent recovery (95% CI) to baseline testosterone or >280 ng/dL (serum testosterone; 8 weeks from last dose): 23.1 (13.5.35.2) %; Kaplan-Meier estimate (95% CI) of testosterone recovery, probability of event (serum testosterone; 12 weeks from last dose): 045 (0.33.0.58); Median testosterone (serum testosterone; Baseline): 355.7 ng/dL; Testosterone Median (serum testosterone; Baseline): 12.350 nmol/L; Testosterone Mean (Std Dev) (serum testosterone; Baseline, Compound 1 120 mg QD or degarelix 80 mg Q4W): 14.067 (6.7100) nmol/L; Testosterone Median (serum testosterone; EOS): 8.920 nmol/L; Testosterone Mean (Std Dev) (serum testosterone; EOT): 5.117 (5.7671) nmol/L; Testosterone Median (serum testosterone; EOT): 3.260 nmol/L; Testosterone Mean (Std Dev) (serum testosterone; Follow-Up): 9.889 (6.3879) nmol/L; Testosterone Median (serum testosterone; Follow-Up): 8.275 nmol/L; time after start of dosing at which serum testosterone was on average below medical castration levels (serum testosterone; Week 1 Day 4): 72 h; Median testosterone (serum testosterone; Week 24): 8.1 ng/dL; Testosterone Mean (Std Dev) (serum testosterone; Week 25, Day 1): 0.395 (0.5584) nmol/L; Testosterone Median (serum testosterone; Week 25, Day 1): 0.280 nmol/L; Median testosterone (serum testosterone; Week 28/EOT visit): 93.9 ng/dL; Median testosterone (serum testosterone; Week 32/follow-up): 238.3 ng/dL; Median testosterone (serum testosterone; Week 36/EOS): 256.9 ng/dL; patients recovered to baseline testosterone or >280 ng/dL (serum testosterone; by 8 weeks of follow-up): Nearly half; patients recovered to baseline testosterone or greater than 280 ng/dL (serum testosterone; end of 12-week follow-up): approximately half; mean serum testosterone after removal of therapy (serum testosterone; follow-up visit and end of study): approximately 10 nmol/L; Median time to medical castration (≤50 ng/dL) (serum testosterone; in vivo): 4 days; Median time to profound castration (≤20 ng/dL) (serum testosterone; in vivo): 15 days; medical castration rate (less than 50 ng/dL) (serum testosterone; over 24 weeks, overall): 95%; profound castration rate (less than 20 ng/dL) (serum testosterone; over 24 weeks, overall): 82%; Testosterone recovery (baseline or >280 ng/dL): number with events (serum testosterone; overall safety population): 34 (52) n (%); Testosterone recovery: number censored (serum testosterone; overall safety population): 30 (46) n (%); Time to testosterone recovery, 25th percentile (95% CI) (serum testosterone; overall safety population): 57 (45.62) days; Time to testosterone recovery, 75th percentile (95% CI) (serum testosterone; overall safety population): 127 (93.127) days; Time to testosterone recovery, Median (95% CI) (serum testosterone; overall safety population): 91 (62, 127) days and 91 (62.127) days; median (95% CI) number of days to testosterone recovery (serum testosterone; patients treated for at least 24 weeks): 86 (58, 93) days; medical castration rate (less than 50 ng/dL) (serum testosterone; [3]): 98%; profound castration rate (less than 20 ng/dL) (serum testosterone; [3]): 84%; decrease in mean Cmax and mean plasma AUC0-∞ on co-administration with food versus fasting ([2]; 180 mg single dose): approximately 50%; median Tmax, fasting conditions ([2]; 180 mg single dose): 1.75 h; median Tmax, fed conditions ([2]; 180 mg single dose, high fat breakfast): 5.00 h; decrease in mean plasma AUC (systemic exposure), dosing 30 min before standardized meal versus fasted ([2]; 180 mg, Part 2 Day 1 versus Part 1 fasted): approximately 28%; dose proportionality of mean Cmax at steady state ([2]; 20 to 180 mg QD): increased slightly more than dose-proportionately; dose proportionality of mean plasma AUC0-tau at steady state ([2]; 20 to 180 mg QD): increased in a dose-proportional manner; median Tmax ([2]; across all doses studied): ~2 h; Compound 1 excreted unchanged in urine ([2]; after single and repeat dosing): Less than 4%; Tmax ([2]; male, human, plasma, oral, 180 mg single dose, high fat breakfast, read-out: median Tmax, fed conditions): 5 h; half-life ([2]; male, human, plasma, oral, across the 20 to 180 mg QD dose range): 36 to 65 h; half-life ([2]; male, human, plasma, oral, repeat dosing, 20 mg QD): 64.5 h; half-life ([2]; male, human, plasma, oral, repeat dosing, 180 mg QD): 35.8 h; dose proportionality of mean Cmax and mean plasma AUC0-∞ ([2]; single doses of 80 mg to 360 mg): dosed proportionally over 80-360 mg range; also recorded: approximate dose-proportional increases; increase in systemic exposure following QD dosing ([2]; steady state): approximately 2 fold
